The results in this text go back to BindingDB's records for patent US20240140938 (Merck Sharp & Dohme, 2024).

For this test, the target named is T1, Diacylglycerol O-acyltransferase 2 (Homo sapiens, UniProt Q96PD7).
T1 sequence (Q96PD7 whole entry): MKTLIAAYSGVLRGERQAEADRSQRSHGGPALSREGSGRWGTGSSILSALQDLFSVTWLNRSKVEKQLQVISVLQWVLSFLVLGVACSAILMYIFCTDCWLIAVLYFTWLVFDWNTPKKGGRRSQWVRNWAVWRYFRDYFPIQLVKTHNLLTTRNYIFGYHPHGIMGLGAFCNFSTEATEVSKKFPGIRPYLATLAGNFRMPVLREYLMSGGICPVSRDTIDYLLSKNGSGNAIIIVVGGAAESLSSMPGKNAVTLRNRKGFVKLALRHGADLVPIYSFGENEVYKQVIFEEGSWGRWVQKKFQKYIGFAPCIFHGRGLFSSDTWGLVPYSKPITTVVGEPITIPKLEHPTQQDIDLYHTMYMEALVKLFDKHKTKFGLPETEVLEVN
The test is described as follows: DGAT2 Enzymatic Activity Assay. As for the experimental part:
DGAT2 activity was determined by measuring the amount of enzymatic product 13C18-triolein (13C-1,2,3-Tri(cis-9-octadecenoyl)glycerol) using the membrane prep mentioned above. The assay was carried out in ABgene 384-well assay plates in a final volume of 25 μL at rt.
As for `CN1CCC(n2nc(-c3cccc(OC(F)F)c3)c3c2C[C@H](C(=O)N[C@]2(C)CCS(=O)(=O)C2)CC3)CC1` [US20240140938, Example 72], the IC50 was above 10 µM.
Under `CC(C)n1nc(-c2cccc(OC(F)F)c2)c2c1C[C@H](C(=O)NC1(C)CS(=O)(=O)C1)CC2` [US20240140938, Example 26] stands 0.319 µM; under `CC(C)n1nc(-c2cccc(C(C)(F)F)c2)c2c1C[C@H](C(=O)NC1(C)CS(=O)(=O)C1)CC2` [US20240140938, Example 102], 8.84 µM; under `CC(C)n1nc(-c2cccc(-n3cccn3)c2)c2c1C[C@H](C(=O)NC1(C)CS(=O)(=O)C1)CC2` [US20240140938, Example 97], above 10 µM.

A word on the IC50: it is the concentration at which inhibition is half-maximal. A higher IC50 goes with a need for much substance.
